# Compound: COc1cc(Nc2ncc(F)c(Nc3ccc4c(n3)NC(=O)C(C)(C)O4)n2)cc(OC)c1OC [R406] + C[C@@H](Oc1cc(-c2cnn(C3CCNCC3)c2)cnc1N)c1c(Cl)ccc(F)c1Cl [Crizotinib] (partner 1 µM)
# Assay: relative viability (nuclei count vs DMSO), 5 days (fraction); higher = more cells survive
# Settings: first compound 8 µM
# Method in brief: (§1)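 Relative viability equals treated-well nuclei counts divided by vehicle-well nuclei counts. Counts came from 4× images of lung cancer cell lines grown in 1536-well plates for 5 days after pin-tool dosing on the day after seeding. Dosing used one drug alone or a fixed anchor-drug dose plus five library-drug doses (not always all listed) in √10 steps, and values are medians of duplicate plates.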
row,Cell Line,relative viability
1,NCI-H1915,0.874
2,HCC-827,0.409
3,LXF-289,0.259
4,NCI-H23,0.285
5,NCI-H650,0.532
6,CAL-12T,0.121
7,NCI-H1651,0.929
8,EPLC-272H,0.49
9,NCI-H2228,0.101
10,NCI-H1792,0.884
11,NCI-H1355,0.687
12,NCI-H3122,0.259
13,NCI-H1437,0.716
14,NCI-H1755,0.188
15,NCI-H2023,0.145

# Compound: O=C(/C=C/c1cccnc1)NCCCCC1CCN(C(=O)c2ccccc2)CC1 [Daporinad] + COc1cccc2cc(-c3nc([C@H]4CC[C@H](C(=O)O)CC4)n4ncnc(N)c34)[nH]c12 [OSI-027] (partner 0.5 µM)
# Assay: as above
# Settings: first compound 0.0005 µM
# Method in brief: as §1
row,Cell Line,relative viability
1,HARA,0.488
2,HCC-78,0.378
3,NCI-H322M,0.526
4,LCLC-97TM1,0.523
5,NCI-H2009,0.599
6,A-427,0.435
7,NCI-H460,0.754
8,NCI-H727,0.603
9,NCI-H1734,0.569
10,NCI-H520,0.245
11,NCI-H2347,0.463
12,SW 1573,0.564
13,201T,0.745
14,NCI-H1915,0.613
15,HCC-827,0.78
16,LXF-289,0.731
17,NCI-H23,0.544
18,NCI-H650,0.477
19,CAL-12T,0.65
20,NCI-H1651,0.747
21,EPLC-272H,0.243
22,NCI-H2228,0.561
23,NCI-H1792,0.668
24,NCI-H1355,0.375
25,NCI-H3122,0.851
26,NCI-H1437,0.851
27,NCI-H1755,0.628
28,NCI-H2023,0.35

# Same assay, conditions: first compound 0.001581 µM
row,Cell Line,relative viability
1,HARA,0.56
2,NCI-H322M,0.617
3,LCLC-97TM1,0.633
4,NCI-H2009,0.739
5,A-427,0.471
6,NCI-H460,0.762
7,NCI-H727,0.606
8,NCI-H1734,0.676
9,NCI-H520,0.222
10,NCI-H2347,0.377
11,SW 1573,0.705
12,201T,0.612
13,NCI-H1915,0.641
14,HCC-827,0.865
15,LXF-289,0.855
16,NCI-H23,0.472
17,NCI-H650,0.415
18,CAL-12T,0.541
19,NCI-H1651,0.767
20,EPLC-272H,0.298
21,NCI-H2228,0.552
22,NCI-H1792,0.655
23,NCI-H1355,0.433
24,NCI-H3122,1.18
25,NCI-H1437,0.885
26,NCI-H1755,0.758
27,NCI-H2023,0.458

# Same assay, conditions: first compound 0.005 µM
row,Cell Line,relative viability
1,HARA,0.55
2,HCC-78,0.383
3,NCI-H322M,0.613
4,LCLC-97TM1,0.656
5,NCI-H2009,0.614
6,A-427,0.503
7,NCI-H460,0.73
8,NCI-H727,0.622
9,NCI-H1734,0.674
10,NCI-H520,0.328
11,NCI-H2347,0.335
12,SW 1573,0.581
13,201T,0.794
14,NCI-H1915,0.719
15,HCC-827,0.881
16,LXF-289,0.89
17,NCI-H23,0.637
18,NCI-H650,0.525
19,CAL-12T,0.719
20,NCI-H1651,0.744
21,EPLC-272H,0.316
22,NCI-H2228,0.915
23,NCI-H1792,0.541
24,NCI-H1355,0.471
25,NCI-H3122,0.98
26,NCI-H1437,0.885
27,NCI-H1755,0.761
28,NCI-H2023,0.395

# Same assay, conditions: first compound 0.01581 µM
row,Cell Line,relative viability
1,HARA,0.355
2,HCC-78,0.368
3,NCI-H322M,0.52
4,LCLC-97TM1,0.517
5,NCI-H2009,0.381
6,A-427,0.31
7,NCI-H460,0.697
8,NCI-H727,0.519
9,NCI-H1734,0.527
10,NCI-H520,0.234
11,NCI-H2347,0.489
12,SW 1573,0.455
13,201T,0.795
14,NCI-H1915,0.712
15,HCC-827,0.74
16,LXF-289,0.89
17,NCI-H23,0.545
18,NCI-H650,0.626
19,CAL-12T,0.33
20,NCI-H1651,0.604
21,EPLC-272H,0.365
22,NCI-H2228,0.731
23,NCI-H1792,0.893
24,NCI-H1355,0.548
25,NCI-H3122,0.845
26,NCI-H1437,0.882
27,NCI-H1755,0.778
28,NCI-H2023,0.455

# Compound: COc1cc(Nc2ncc(F)c(Nc3ccc4c(n3)NC(=O)C(C)(C)O4)n2)cc(OC)c1OC [R406] + CS(=O)(=O)CCNCc1ccc(-c2ccc3ncnc(Nc4ccc(OCc5cccc(F)c5)c(Cl)c4)c3c2)o1 [Lapatinib] (partner 2 µM)
# Assay: as above
# Settings: first compound 0.08 µM
# Method in brief: as §1
row,Cell Line,relative viability
1,HARA,0.743
2,HCC-78,0.673
3,NCI-H322M,0.543
4,LCLC-97TM1,0.647
5,NCI-H2009,0.93
6,A-427,0.922
7,NCI-H460,1.07
8,NCI-H727,0.918
9,NCI-H1734,1.03
10,NCI-H520,0.733
11,NCI-H2347,1.01
12,SW 1573,1.13
13,201T,0.868
14,NCI-H1915,0.991
15,HCC-827,0.163
16,LXF-289,0.868
17,NCI-H23,1.12
18,NCI-H650,0.877
19,CAL-12T,0.697
20,NCI-H1651,0.694
21,EPLC-272H,0.888
22,NCI-H2228,1.13
23,NCI-H1792,0.844
24,NCI-H1355,0.887
25,NCI-H3122,1.01
26,NCI-H1437,0.689
27,NCI-H1755,1.03
28,NCI-H2023,0.968

# Same assay, conditions: first compound 0.253 µM
row,Cell Line,relative viability
1,HARA,0.672
2,HCC-78,0.919
3,NCI-H322M,0.51
4,LCLC-97TM1,0.855
5,NCI-H2009,1.19
6,A-427,1.14
7,NCI-H460,1.51
8,NCI-H727,0.85
9,NCI-H1734,1.1
10,NCI-H520,1.03
11,NCI-H2347,0.968
12,SW 1573,1.22
13,201T,1.06
14,NCI-H1915,1.09
15,HCC-827,0.21
16,LXF-289,1.01
17,NCI-H23,1.54
18,NCI-H650,1.04
19,CAL-12T,0.698
20,NCI-H1651,0.87
21,EPLC-272H,0.924
22,NCI-H2228,1.27
23,NCI-H1792,1.1
24,NCI-H1355,0.974
25,NCI-H3122,1.06
26,NCI-H1437,1.01
27,NCI-H1755,1.07
28,NCI-H2023,0.976

# Same assay, conditions: first compound 0.8 µM
row,Cell Line,relative viability
1,HARA,0.775
2,HCC-78,0.888
3,NCI-H322M,0.647
4,LCLC-97TM1,1.06
5,NCI-H2009,1.22
6,A-427,1.17
7,NCI-H727,0.905
8,NCI-H1734,1.1
9,NCI-H520,1.02
10,NCI-H2347,0.958
11,SW 1573,1.14
12,201T,1.02
13,NCI-H1915,1.03
14,HCC-827,0.186
15,LXF-289,0.9
16,NCI-H23,1.28
17,NCI-H650,1.02
18,CAL-12T,0.775
19,NCI-H1651,0.944
20,EPLC-272H,1.1
21,NCI-H2228,1.5
22,NCI-H1792,1.06
23,NCI-H1355,1.08
24,NCI-H3122,0.981
25,NCI-H1437,1.07
26,NCI-H1755,1.04
27,NCI-H2023,1.05

# Same assay, conditions: first compound 2.53 µM
row,Cell Line,relative viability
1,HARA,0.55
2,HCC-78,0.649
3,NCI-H322M,0.335
4,LCLC-97TM1,0.717
5,NCI-H2009,0.0976
6,A-427,0.958
7,NCI-H727,0.195
8,NCI-H1734,0.426
9,NCI-H520,0.241
10,NCI-H2347,0.905
11,SW 1573,1.27
12,201T,0.95
13,NCI-H1915,0.806
14,HCC-827,0.169
15,LXF-289,0.921
16,NCI-H23,0.589
17,NCI-H650,0.243
18,CAL-12T,0.638
19,NCI-H1651,0.234
20,EPLC-272H,0.442
21,NCI-H2228,0.13
22,NCI-H1792,0.776
23,NCI-H1355,0.901
24,NCI-H3122,0.969
25,NCI-H1437,0.265
26,NCI-H1755,0.678
27,NCI-H2023,0.0633

# Same assay, conditions: first compound 8 µM
row,Cell Line,relative viability
1,HARA,0.157
2,HCC-78,0.354
3,NCI-H322M,0.343
4,LCLC-97TM1,1.13
5,NCI-H2009,0.261
6,A-427,0.801
7,NCI-H460,0.308
8,NCI-H727,0.712
9,NCI-H1734,0.621
10,NCI-H520,0.133
11,NCI-H2347,0.801
12,SW 1573,0.825
13,201T,0.905
14,NCI-H1915,0.778
15,HCC-827,0.17
16,LXF-289,0.605
17,NCI-H23,0.593
18,NCI-H650,0.52
19,CAL-12T,0.288
20,NCI-H1651,0.275
21,EPLC-272H,0.228
22,NCI-H2228,0.131
23,NCI-H1792,0.765
24,NCI-H1355,0.764
25,NCI-H3122,0.934
26,NCI-H1437,0.328
27,NCI-H1755,0.329
28,NCI-H2023,0.189
